According to US20110039763A1, “TARGETED ANTIMICROBIAL MOIETIES” (C3 JIAN, INC., priority 2009, published 2011):
Read-outs that look alike come from different tables or passages of the source. Bridge positions count the residues as written; N and C are the ends. Square brackets hold non-standard residues; d marks the D form. Ends that are not written are not given here. Peptide text beside a SMILES is read from it. I, II: the chains in the order shown. Aoc = NCCCCCCCC(=O)O

Experiments:
[1] = tested on: Mixed planktonic populations of P. aeruginosa, E. coli, S. epidermidis, and S. mutans; experiment: Microbial population shift assay; assay type: cell-based; conditions: mixed culture, 10 μM peptide, 24 h, detection limit 200 cfu/mL, FIG. 18
Experimental: Peptide (10 μM) or mock-treatment (1×PBS) was then added and samples were incubated at 37° C. for 24 h under anaerobic conditions (80% N2, 15% CO2, 5% H2). […] Plates were then incubated 37° C. under aerobic conditions (TH plates were incubated anaerobically) and colonies counted after 24 h to determine survivors. […] Gram stains and direct microscopic observation (from select isolated colonies) were undertaken to confirm species identity (data not shown). The detection limit of the assay was 200 cfu/mL.
We hypothesized that potential MH-STAMP dual-functionality could affect a particular set of bacteria within a mixed population, thereby promoting the outgrowth of non-targeted organisms and “shifting” the constituent makeup. To examine this possibility, defined mixed populations of planktonic cells were treated continuously and the make-up of the community examined after 24 h.

S. mutans [2] = experiment: Post-antibiotic effect assay, S. mutans; assay type: cell-based, Streptococcus mutans; conditions: S. mutans monoculture; peptide 10 min, then fresh medium; FIG. 17A
Experimental: The activity and selectivity of MH-STAMPs after a 10 min incubation was determined by growth retardation experiments against targeted and untargeted bacteria in monocultures, as described previously (Id.). Cells from overnight cultures were diluted to ˜5×10^6 cfu/mL in MH (or TH with 1% sucrose for S. mutans), normalized by OD600 0.05-0.1 and seeded to 96-well plates. Cultures were then grown under the appropriate conditions for 2 h (3 h for S. mutans) prior to the addition of peptides for 10 min. Plates were then centrifuged at 3000×g for 5 min, the supernatants discarded, fresh medium returned (MH or TH without sucrose for S. mutans), and incubation resumed. Bacterial growth after treatment was then monitored over time by OD600.
MH-STAMP antimicrobial kinetics was ascertained utilizing a variation of the classical post-antibiotic effect assay, which measures the ability of an agent to affect an organism's growth after a short exposure period. Monocultures of MH-STAMP-targeted and untargeted organisms were exposed to M8(KH)-20, M8(BL)-20, BL(KH)-20, or unmodified BD2.20, then allowed to recover. […] Furthermore, replacement of the targeting region with a non-binding peptide abolishes specific activity.

S. epidermidis = experiment: MIC test (broth microdilution) / antimicrobial activity, S. epidermidis; assay type: cell-based, Staphylococcus epidermidis
Experimental: (§1) The active AMPs, STAMPs and the like can be identified and/or validated using an in vitro screening assay.
(§2) It will be appreciated that other assays as are well known in the art or that will become apparent to those having skill in the art upon review of this disclosure may also be used to identify active AMPs. Such assays include, for example, the assay described in Lehrer et al. (1988) J. Immunol.
(§3) Peptides were evaluated for basic antimicrobial activity by broth microdilution, as described previously (Eckert et al. (2006) Antimicrob Agents Chemother., 50: 3651-3657; Eckert et al. (2006) Antimicrob Agents Chemother., 50: 1480-1488). Briefly, ˜1×10^5 cfu/mL bacteria were diluted in TH (S. mutans), or Mueller-Hinton (MH) broth (all other organisms) and distributed to 96-well plates. Serially-diluted (2-fold) peptides were then added and the plates incubated at 37° C. for 18-24 h. […] All experiments were conducted 10 times.

microorganisms [3] = experiment: Peptide activities: targeting/binding, antimicrobial, growth or phenotype altering (Tables 7, 8); assay type: cell-based; conditions: peptides having multiple activities
S. pneumoniae = experiment: MIC test / antimicrobial activity, S. pneumoniae; assay type: cell-based, Streptococcus pneumoniae
Experimental: as §1, §2, §3

microorganisms [4] = experiment: Morphology, biofilm and growth disrupting peptides (Table 5); assay type: cell-based; design: key: A: Peptide aggregates; B: Less hyphal formation; Clumps; Diffuse clumps and small polyps; F: Diffuse growth; H: Thin; I: Growth inhibition; Microcolony formation; Rippled; Small polyps; Thick; W: Halo formation on top, microlonies on bottom
Text: In certain embodiments peptides that induce alterations in phenotype or other biological activities can also be used as antimicrobial effector moieties.

S. mutans [5] = experiment: MIC test (broth microdilution) / antimicrobial activity, S. mutans; assay type: cell-based, Streptococcus mutans
Experimental: as §1, §2, §3

E. coli = experiment: MIC test (broth microdilution) / antimicrobial activity, E. coli; assay type: cell-based, Escherichia coli
Experimental: as §1, §2, §3

MRSA = experiment: MIC test / antimicrobial activity, MRSA; assay type: cell-based, Methicillin-resistant Staphylococcus aureus
Experimental: as §1, §2, §3

P. aeruginosa = experiment: MIC test (broth microdilution) / antimicrobial activity, P. aeruginosa; assay type: cell-based, Pseudomonas aeruginosa
Experimental: as §1, §2, §3

T. rubrum = experiment: MIC test / antimicrobial activity, T. rubrum; assay type: cell-based, Trichophyton rubrum
Experimental: as §1, §2, §3

B. subtilis = experiment: MIC test / antimicrobial activity, B. subtilis; assay type: cell-based, Bacillus subtilis
Experimental: as §1, §2, §3

A. niger = experiment: MIC test / antimicrobial activity, A. niger; assay type: cell-based, Aspergillus niger
Experimental: as §1, §2, §3

C. jeikeium = experiment: MIC test / antimicrobial activity, C. jeikeium; assay type: cell-based, Corynebacterium jeikeium
Experimental: as §1, §2, §3

S. mutans [6] = experiment: Anti-S. mutans STAMP activity in vitro, incl. formulations; assay type: cell-based, Streptococcus mutans
Text: During the course of evaluating STAMPs, antimicrobial peptides (AMPs), and binding peptides for desired activity, it was discovered that certain formulations can attenuate or promote peptide activity, as compared to activity levels in a default buffer system (1×PBS). In some cases, 1×PBS may provide the best level of activity. Below are a number of formulations that alter, or may alter, peptide or STAMP activity. For complex buffer systems, assume the base solvent is water unless otherwise stated.
All show potent selective activity against their bacterial targets in vitro, including against biofilm forms. When tested, STAMPs have little cytotoxicity against cell lines in vitro.
It was a surprising discovery that certain anti-S. mutans STAMPs required a salt in the formulation (e.g., PBS) for optimum activity. […] Suitable PBS formulations ranged from 0.5×PBS to about 2.5×PBS with an activity optimum at about 1×PBS. Similar results are believed to obtain for other anti-S. mutans STAMPS as well as a number of other STAMPs. In certain embodiments STAMP stability in solution was improved by inclusion of fluoride in mouthrinse.

A. baumannii = experiment: MIC test / antimicrobial activity, A. baumannii; assay type: cell-based, Acinetobacter baumannii
Experimental: as §1, §2, §3

C. difficile = experiment: MIC test / antimicrobial activity, C. difficile; assay type: cell-based, Clostridium difficile
Experimental: as §1, §2, §3

Compound | Organism MIC (μM) (S. epidermidis; S. epidermidis) | Activities (microorganisms [3]) | Organism MIC (μM) (S. pneumoniae) | Organism, effect (microorganisms [4]; C. albicans) | Organism, effect (microorganisms [4]; MRSA) | Organism, effect (microorganisms [4]; S. epidermidis) | Organism, effect (microorganisms [4]; S. mutans) | Organism, effect (microorganisms [4]; S. pneumoniae) | Organism MIC (μM) (S. mutans [5]) | Organism MIC (μM) (E. coli) | Organism MIC (μM) (MRSA) | Organism MIC (μM) (T. rubrum) | Organism, effect (microorganisms [4]; M. luteus) | Organism, effect (microorganisms [4]; P. aeruginosa) | Organism MIC (μM) (A. niger) | Organism MIC (μM) (C. jeikeium) | Organism, effect (microorganisms [4]; E. coli) | other results
CC[C@H](C)[C@H](NC(=O)[C@H](Cc1ccccc1)NC(=O)CCCCCCCNC(=O)[C@H](CCCCNC(=O)CNC(=O)CNC(=O)CNC(=O)[C@H](C)NC(=O)[C@H](CCC(=O)O)NC(=O)[C@H](CC(N)=O)NC(=O)[C@H](C)NC(=O)[C@H](C)NC(=O)[C@@H](N)CC(=O)O)NC(=O)CNC(=O)CNC(=O)CNC(=O)[C@H](CCCNC(=N)N)NC(=O)[C@H](CC(N)=O)NC(=O)[C@H](CC(C)C)NC(=O)[C@H](Cc1ccccc1)NC(=O)[C@H](CCCNC(=N)N)NC(=O)[C@H](Cc1ccccc1)NC(=O)[C@H](Cc1ccccc1)NC(=O)[C@@H](NC(C)=O)[C@@H](C)O)C(=O)N[C@@H](CCCNC(=N)N)C(=O)N[C@@H](CCCCN)C(=O)N[C@@H](Cc1ccccc1)C(=O)N[C@@H](CC(C)C)C(=O)N[C@@H](CCCCN)C(=O)N[C@@H](CCCCN)C(=O)N[C@@H](Cc1c[nH]c2ccccc12)C(=O)N[C@@H](CC(C)C)C(=O)N[C@@H](CC(C)C)C(N)=O [M8(BL)-20] (I: Ac-TFFRFLNRGGGK[Aoc]FIRKFLKKWLL-NH2 / II: H-DAANEAGGG; amide I:12-II:C) | – | – | – | – | – | – | – | – | – | – | – | – | – | – | – | – | – | surviving P. aeruginosa ([1]; input ~0.5×10^4 cfu/mL): not affected or affected to a lesser extent; surviving E. coli ([1]; input ~2×10^4 cfu/mL): not affected or affected to a lesser extent; surviving S. epidermidis ([1]; input ~2×10^4 cfu/mL): not affected or affected to a lesser extent; surviving S. mutans ([1]; input ~6×10^4 cfu/mL): greatly reduced compared to input cfu/mL; growth after treatment (culture recovery, OD600) (S. mutans [2]): effectively retarded
FESKILNASKELDKEKKVNTALSFNSHQDFAKAYQNGKI [PF-606] | S. epidermidis, 50 μM | G M | S. pneumoniae, 50 μM | C. albicans (B) | MRSA (I) | S. epidermidis (I) | S. mutans (I) | S. pneumoniae (H) | S. mutans, 50 μM | E. coli, 50 μM | MRSA, 50 μM | – | – | – | – | – | – | –
GSVIKKRRKRMAKKKHRKLLKKTRIQRRRAGK [PF-527] | – | G B M | – | C. albicans (B) | MRSA (I) | S. epidermidis (M) | – | S. pneumoniae (H) | – | – | MRSA, 50 μM | T. rubrum, 25 μM | M. luteus (S) | P. aeruginosa (I) | A. niger, 50 μM | C. jeikeium, 6.25 μM | – | Organism MIC (μM) (S. epidermidis): S. epidermidis, 25 μM; Organism MIC (μM) (P. aeruginosa): P. aeruginosa, 50 μM; Organism MIC (μM) (B. subtilis): B. subtilis, 12.5 μM; Organism, effect (microorganisms [4]; B. subtilis): B. subtilis (I); Organism, effect (microorganisms [4]; C. jeikeium): C. jeikeium (I); Organism, effect (microorganisms [4]; C. jejuni): C. jejuni (M)
TFFRLFNRSFTQALGKGGGKNLRIIRKGIHIIKKY* [C16G2] | – | – | – | – | – | – | – | – | – | – | – | – | – | – | – | – | – | STAMP activity in formulation (S. mutans [6]; phosphate buffered saline (PBS) formulation, 0.5×PBS to about 2.5×PBS, optimum at about 1×PBS): active; STAMP activity in formulation (S. mutans [6]; water-based salt-free buffers and nanoemulsions): substantially inactive
TKKIELKRFVDAFVKKSYENYILERELKKLIKAINEELPTK [PF-600] | – | G B M | S. pneumoniae, 50 μM | – | MRSA (M) | S. epidermidis (C) | S. mutans (S) | S. pneumoniae (R) | – | E. coli, 50 μM | – | – | M. luteus (C) | – | – | – | E. coli (H) | –
YIQFHLNQQPRPKVKKIKIFL-NH2 [PF-531] | S. epidermidis, 50 μM | G M | – | – | – | S. epidermidis (I) | – | S. pneumoniae (C) | S. mutans, 12.5 μM | – | – | T. rubrum, 50 μM | – | P. aeruginosa (I) | A. niger, 25 μM | C. jeikeium, 6.25 μM | E. coli (M) | Organism MIC (μM) (P. aeruginosa; P. aeruginosa): P. aeruginosa, 50 μM; Organism MIC (μM) (A. baumannii): A. baumannii, 25 μM; Organism MIC (μM) (C. difficile): C. difficile, 12.5 μM; Organism MIC (μM) (B. subtilis; B. subtilis): B. subtilis, 25 μM
